Source: PubChem BioAssay (NCI)
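Compound exposure: 48 hours, 5 concentrations, 96-well plates. Abbreviation: GI50, concentration required for 50% inhibition of growth. TGI is the concentration that stops growth completely.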

Key:
Assay in all cases: NCI anticancer screen, dose series, 48 h
ACHN renal = test system: ACHN renal
EKVX NSCLC = test system: EKVX NSCLC
PC-3 prostate = test system: PC-3 prostate
SNB-75 CNS = test system: SNB-75 CNS
LOX IMVI melanoma = test system: LOX IMVI melanoma
SK-MEL-28 melanoma = test system: SK-MEL-28 melanoma
A549 NSCLC = test system: A549 NSCLC
NCI-H226 lung = test system: NCI-H226 lung
NCI-H460 lung = test system: NCI-H460 lung
SK-MEL-2 melanoma = test system: SK-MEL-2 melanoma
TK-10 renal = test system: TK-10 renal
NCI-H23 lung = test system: NCI-H23 lung
MDA-MB-231 breast = test system: MDA-MB-231 breast
SN12C renal = test system: SN12C renal
SF-295 CNS = test system: SF-295 CNS
M14 melanoma = test system: M14 melanoma
K-562 leukemia = test system: K-562 leukemia
SR leukemia = test system: SR leukemia
DU-145 prostate = test system: DU-145 prostate
UACC-257 melanoma = test system: UACC-257 melanoma
UACC-62 melanoma = test system: UACC-62 melanoma
786-0 renal = test system: 786-0 renal
SNB-19 CNS = test system: SNB-19 CNS
UO-31 renal = test system: UO-31 renal
T-47D breast = test system: T-47D breast
HCT-15 colon = test system: HCT-15 colon
HL-60(TB) leukemia = test system: HL-60(TB) leukemia
SK-OV-3 ovarian = test system: SK-OV-3 ovarian
HCT-116 colon = test system: HCT-116 colon
HS 578T breast = test system: HS 578T breast
SW-620 colon = test system: SW-620 colon
RXF 393 renal = test system: RXF 393 renal
HOP-62 NSCLC = test system: HOP-62 NSCLC
MOLT-4 leukemia = test system: MOLT-4 leukemia
KM12 colon = test system: KM12 colon
OVCAR-3 ovarian = test system: OVCAR-3 ovarian
COLO 205 colon = test system: COLO 205 colon
RPMI-8226 leukemia = test system: RPMI-8226 leukemia
A498 renal = test system: A498 renal
CCRF-CEM leukemia = test system: CCRF-CEM leukemia
HCC-2998 colon = test system: HCC-2998 colon
OVCAR-5 ovarian = test system: OVCAR-5 ovarian
OVCAR-8 ovarian = test system: OVCAR-8 ovarian
MDA-MB-435 = test system: MDA-MB-435
OVCAR-4 ovarian = test system: OVCAR-4 ovarian
HOP-92 NSCLC = test system: HOP-92 NSCLC
SF-539 CNS = test system: SF-539 CNS
CAKI-1 renal = test system: CAKI-1 renal
NCI/ADR-RES ovarian = test system: NCI/ADR-RES ovarian
NCI-H522 lung = test system: NCI-H522 lung
HT29 colon = test system: HT29 colon
U251 CNS = test system: U251 CNS
MCF7 breast = test system: MCF7 breast
SK-MEL-5 melanoma = test system: SK-MEL-5 melanoma
BT-549 breast = test system: BT-549 breast
SF-268 CNS = test system: SF-268 CNS
MALME-3M melanoma = test system: MALME-3M melanoma
IGROV1 ovarian = test system: IGROV1 ovarian

Question: For `COc1ccc(C(=O)Nc2ncc(Cc3ccccc3Cl)s2)cc1`, which GI50 (ACHN renal) is on record?
Answer: 502 nM

Question: And the TGI (ACHN renal)?
Answer: 18.3 µM

Question: And the GI50 (EKVX NSCLC)?
Answer: 1790 nM

Question: And the TGI (EKVX NSCLC)?
Answer: 38.6 µM

Question: What about the GI50 (PC-3 prostate) of the same molecule?
Answer: 274 nM

Question: And the TGI (PC-3 prostate)?
Answer: > 68.4 µM

Question: What about the GI50 (SNB-75 CNS) of the same molecule?
Answer: 201 nM

Question: What about the TGI (SNB-75 CNS) of the same molecule?
Answer: 6.02 µM

Question: And the GI50 (LOX IMVI melanoma)?
Answer: 259 nM

Question: What about the TGI (LOX IMVI melanoma) of the same molecule?
Answer: > 35 µM

Question: What about the GI50 (SK-MEL-28 melanoma) of the same molecule?
Answer: 1550 nM

Question: And the TGI (SK-MEL-28 melanoma)?
Answer: > 66.4 µM

Question: And the GI50 (A549 NSCLC)?
Answer: 435 nM

Question: And the TGI (A549 NSCLC)?
Answer: > 47.4 µM

Question: And the GI50 (NCI-H226 lung)?
Answer: 283 nM

Question: And the TGI (NCI-H226 lung)?
Answer: 2530 nM

Question: And the GI50 (NCI-H460 lung)?
Answer: 147 nM

Question: And the TGI (NCI-H460 lung)?
Answer: 5.2 µM

Question: What about the GI50 (SK-MEL-2 melanoma) of the same molecule?
Answer: 176 nM

Question: And the TGI (SK-MEL-2 melanoma)?
Answer: 3.83 µM

Question: What about the GI50 (TK-10 renal) of the same molecule?
Answer: 11.9 µM

Question: And the TGI (TK-10 renal)?
Answer: 41.1 µM

Question: What about the GI50 (NCI-H23 lung) of the same molecule?
Answer: 625 nM

Question: And the TGI (NCI-H23 lung)?
Answer: 30.5 µM

Question: What about the GI50 (MDA-MB-231 breast) of the same molecule?
Answer: 437 nM

Question: And the TGI (MDA-MB-231 breast)?
Answer: 20 µM

Question: And the GI50 (SN12C renal)?
Answer: 309 nM

Question: And the TGI (SN12C renal)?
Answer: 20.4 µM

Question: And the GI50 (SF-295 CNS)?
Answer: 214 nM

Question: What about the TGI (SF-295 CNS) of the same molecule?
Answer: 6.43 µM

Question: And the GI50 (M14 melanoma)?
Answer: 162 nM

Question: And the TGI (M14 melanoma)?
Answer: > 36.6 µM

Question: What about the GI50 (K-562 leukemia) of the same molecule?
Answer: 60 nM

Question: And the TGI (K-562 leukemia)?
Answer: > 100 µM

Question: What about the GI50 (SR leukemia) of the same molecule?
Answer: 39.8 nM

Question: What about the TGI (SR leukemia) of the same molecule?
Answer: > 100 µM

Question: What about the GI50 (DU-145 prostate) of the same molecule?
Answer: 415 nM

Question: And the TGI (DU-145 prostate)?
Answer: 14.2 µM

Question: And the GI50 (UACC-257 melanoma)?
Answer: 5.87 µM

Question: What about the TGI (UACC-257 melanoma) of the same molecule?
Answer: > 65.5 µM

Question: And the GI50 (UACC-62 melanoma)?
Answer: 127 nM

Question: What about the TGI (UACC-62 melanoma) of the same molecule?
Answer: 16.3 µM

Question: What about the GI50 (786-0 renal) of the same molecule?
Answer: 400 nM

Question: What about the TGI (786-0 renal) of the same molecule?
Answer: 22.6 µM

Question: And the GI50 (SNB-19 CNS)?
Answer: 404 nM

Question: What about the TGI (SNB-19 CNS) of the same molecule?
Answer: 19.2 µM

Question: And the GI50 (UO-31 renal)?
Answer: 696 nM

Question: What about the TGI (UO-31 renal) of the same molecule?
Answer: 38.1 µM

Question: And the GI50 (T-47D breast)?
Answer: 2090 nM

Question: And the TGI (T-47D breast)?
Answer: > 56.7 µM

Question: What about the GI50 (HCT-15 colon) of the same molecule?
Answer: 59.3 nM

Question: And the TGI (HCT-15 colon)?
Answer: 13.2 µM

Question: What about the GI50 (HL-60(TB) leukemia) of the same molecule?
Answer: 87.3 nM

Question: What about the TGI (HL-60(TB) leukemia) of the same molecule?
Answer: 1950 nM

Question: And the GI50 (SK-OV-3 ovarian)?
Answer: 372 nM

Question: What about the TGI (SK-OV-3 ovarian) of the same molecule?
Answer: 16.6 µM

Question: And the GI50 (HCT-116 colon)?
Answer: 114 nM

Question: What about the TGI (HCT-116 colon) of the same molecule?
Answer: 15.7 µM

Question: What about the GI50 (HS 578T breast) of the same molecule?
Answer: 309 nM

Question: What about the TGI (HS 578T breast) of the same molecule?
Answer: 23.6 µM

Question: What about the GI50 (SW-620 colon) of the same molecule?
Answer: 106 nM

Question: What about the TGI (SW-620 colon) of the same molecule?
Answer: > 100 µM

Question: And the GI50 (RXF 393 renal)?
Answer: 126 nM

Question: And the TGI (RXF 393 renal)?
Answer: 1410 nM

Question: And the GI50 (HOP-62 NSCLC)?
Answer: 667 nM

Question: What about the TGI (HOP-62 NSCLC) of the same molecule?
Answer: 18.7 µM

Question: What about the GI50 (MOLT-4 leukemia) of the same molecule?
Answer: 266 nM

Question: What about the TGI (MOLT-4 leukemia) of the same molecule?
Answer: > 100 µM

Question: What about the GI50 (KM12 colon) of the same molecule?
Answer: 140 nM

Question: What about the TGI (KM12 colon) of the same molecule?
Answer: 23 µM

Question: And the GI50 (OVCAR-3 ovarian)?
Answer: 191 nM

Question: What about the TGI (OVCAR-3 ovarian) of the same molecule?
Answer: 5.22 µM

Question: And the GI50 (COLO 205 colon)?
Answer: 264 nM

Question: What about the TGI (COLO 205 colon) of the same molecule?
Answer: 1030 nM

Question: And the GI50 (RPMI-8226 leukemia)?
Answer: 270 nM

Question: And the TGI (RPMI-8226 leukemia)?
Answer: > 100 µM

Question: What about the GI50 (A498 renal) of the same molecule?
Answer: 6.54 µM

Question: What about the TGI (A498 renal) of the same molecule?
Answer: 33.7 µM

Question: What about the GI50 (CCRF-CEM leukemia) of the same molecule?
Answer: 148 nM

Question: And the TGI (CCRF-CEM leukemia)?
Answer: > 100 µM

Question: And the GI50 (HCC-2998 colon)?
Answer: 240 nM

Question: And the TGI (HCC-2998 colon)?
Answer: 3.66 µM

Question: And the GI50 (OVCAR-5 ovarian)?
Answer: 406 nM

Question: And the TGI (OVCAR-5 ovarian)?
Answer: 22.6 µM

Question: And the GI50 (OVCAR-8 ovarian)?
Answer: 462 nM

Question: And the GI50 (MDA-MB-435)?
Answer: 31.6 nM

Question: What about the TGI (MDA-MB-435) of the same molecule?
Answer: 122 nM

Question: And the GI50 (OVCAR-4 ovarian)?
Answer: 2070 nM

Question: What about the TGI (OVCAR-4 ovarian) of the same molecule?
Answer: 30 µM

Question: And the GI50 (HOP-92 NSCLC)?
Answer: 11.8 µM

Question: What about the TGI (HOP-92 NSCLC) of the same molecule?
Answer: > 80.2 µM

Question: What about the GI50 (SF-539 CNS) of the same molecule?
Answer: 179 nM

Question: And the TGI (SF-539 CNS)?
Answer: 842 nM

Question: And the GI50 (CAKI-1 renal)?
Answer: 138 nM

Question: And the TGI (CAKI-1 renal)?
Answer: 16.6 µM

Question: What about the GI50 (NCI/ADR-RES ovarian) of the same molecule?
Answer: 145 nM

Question: And the TGI (NCI/ADR-RES ovarian)?
Answer: 3.79 µM

Question: And the GI50 (NCI-H522 lung)?
Answer: 118 nM

Question: What about the TGI (NCI-H522 lung) of the same molecule?
Answer: 387 nM

Question: And the GI50 (HT29 colon)?
Answer: 128 nM

Question: What about the TGI (HT29 colon) of the same molecule?
Answer: 2230 nM

Question: And the GI50 (U251 CNS)?
Answer: 288 nM

Question: What about the TGI (U251 CNS) of the same molecule?
Answer: 23.1 µM

Question: And the GI50 (MCF7 breast)?
Answer: 137 nM

Question: What about the TGI (MCF7 breast) of the same molecule?
Answer: > 34.5 µM

Question: And the GI50 (SK-MEL-5 melanoma)?
Answer: 307 nM

Question: What about the TGI (SK-MEL-5 melanoma) of the same molecule?
Answer: 6.44 µM

Question: What about the GI50 (BT-549 breast) of the same molecule?
Answer: 427 nM

Question: And the TGI (BT-549 breast)?
Answer: 11 µM

Question: And the GI50 (SF-268 CNS)?
Answer: 1580 nM

Question: And the TGI (SF-268 CNS)?
Answer: 58.3 µM

Question: And the GI50 (MALME-3M melanoma)?
Answer: 1120 nM

Question: And the TGI (MALME-3M melanoma)?
Answer: 23.1 µM

Question: And the GI50 (IGROV1 ovarian)?
Answer: 486 nM

Question: What about the TGI (IGROV1 ovarian) of the same molecule?
Answer: 26.8 µM
